The subject of one data set is colonic epithelial cells. Briefly: In vivo colonic epithelial cell proliferation, [methyl-3H]thymidine incorporation into DNA. Details: species or system rats. For orientation: Incorporation of labelled thymidine or its analogues reports DNA synthesis.
Data set [1] relates to human erythrocyte suspension. Briefly: Cytotoxicity of fecal water, potassium release from erythrocytes (erythrocyte bioassay). The class given is cell-based. How it is done: Fecal water was prepared by reconstituting a small amount of freeze-dried feces with double-distilled water to 20 % dry weight. After homogenizing, samples were incubated for 1 hour in a shaking water bath at 37°C, with mixing every 15 min, followed by centrifugation for 20 min at 13.500 g. The supernatants were collected and centrifuged again at 14.000 g for 2 min. The osmolarity (Osmomat 030-D, Gonotec, Berlin, Germany) of the fecal waters was determined. If osmolarity differed from 300 mOsmol/L, another portion of freeze-dried feces was reconstituted with double-distilled water, adjusting the percentage dry weight to obtain fecal water with an osmolarity of 300 mOsmol/L. The fecal waters were stored at -20°C until further analysis.
(§1) Cytotoxicity of fecal water was quantified by potassium release after incubation with a human erythrocyte suspension as described previously and validated earlier with intestinal epithelial cells. The potassium content of the erythrocytes was measured with an Inductive Coupled Plasma […] Emission Spectrophotometer (ICP-AES, Varian, Mulgrave, Australia) and the cytotoxicity of fecal water was calculated and expressed as a percentage of maximal lysis.

Another data set deals with colonocytes. Briefly: Quantification of epithelial (host) DNA in feces by real-time PCR for the β-globin gene. In kind it is in vivo, rats. The protocol: Food and demineralised drinking water were supplied ad libitum.
Fecal host DNA content was quantified using DNA extraction and real-time PCR, using rat-specific probe and primers for the β-globin gene. In short, DNA was isolated from 20 mg freeze-dried feces using the QIAamp DNA stool mini kit (Westburg, Leusden, The Netherlands) following the recommendations of the manufacturer for human DNA analysis. […] The standard DNA used for the quantification of the DNA in the feces was isolated from rat spleen, using the Wizard Genomic DNA purification kit (Promega Corporation, Madison, WI, USA). The real-time PCR was performed using the ABI prism 7700 Sequence Detection system (PE Applied Biosystems, Nieuwerkerk a/d IJssel, The Netherlands). Universal Taqman Master Mix and Taqman Exogenous Internal positive Control (IPC) Reagent (Vic ™ probe) were purchased from Applied Biosystems and the Taqman probe containing a 5' FAM labeled fluorescent reporter dye (6-carboxyfluorosein) and a 3' TAMRA quencher dye (6-carboxytetramethylrhodamine) was purchased from Proligo (Paris, France). PCR primers were synthesized by Amersham Pharmacia Biotech Custom DNA Synthesis Service (Roosendaal, The Netherlands). For amplification of host DNA 5 µl of the purified DNA (100-500 ng) was used in a volume of 50 µl, containing 1x Master Mix, 200 nM forward primer (5'-[…]-3'), 200 nM reverse primer (5'-[…]-3'), 100 nM probe (5'-[…]-3'), 1x IPC mix and 1x IPC DNA. The PCR protocol consisted of 2 min 50°C, 10 min 95°C and 40 cycles of 15 sec 95°C and 1 min 62°C.
(Real-time PCR tracks product formation cycle by cycle.)

For a further data set, the system named is colon mucosa. Briefly: Total DNA content of colon mucosa scrapings (diphenylamine reaction). The class given is in vivo, rats. The settings on record: spinach study. The text has this: After the experimental feeding period of 14 days, we quantified the colon epithelial cell proliferation as DNA-replication, using [methyl-^3H]thymidine incorporation into DNA. We choose this biochemical method because it is the most rapid, specific and quantitative marker of cell replication in vivo. Moreover, we have shown earlier that DNA-replication highly correlates with faecal water cytotoxicity. This substantiates a cause-and-effect relationship that we want to address in the present study. Non-fasted rats were injected i.p. with [methyl-^3H]thymidine (specific activity 925 GBq / mmol; dose 3.7 MBq / kg body weight; Amersham International, Amersham, UK) in 154 mM NaCl. After 2 hours the rats were killed by CO2 inhalation. The colon was removed and opened longitudinally. Colonic contents were removed by rinsing with 154 mM KCl. […] These homogenates were analyzed for ^3H-thymidine incorporation and for total DNA content. […] A sample (0.5 ml) of the hydrolysate was dissolved in 15 ml Aqua Luma (Lumac-LSC BV., Groningen, The Netherlands) and counted with corrections for quenching on a Beckman LS-7500 liquid scintillation counter. DNA content was determined using the diphenylamine reaction with calf thymus DNA as standard (Sigma).

Data set [2] deals with human erythrocyte suspension. Briefly: Cytotoxicity of size exclusion chromatography fractions of lipid extracts of pooled fecal water. The conditions noted are these: chlorophyll study, heme group: high-molecular weight components eluting around 6 min (Figure 6B). In kind it is cell-based. The protocol: as §1
Pooled fecal water from the different treatment groups was first purified, by adding 560 µl water and 2.5 ml diethylether (ether) to 100 µl fecal water, and after vigorous mixing, centrifugation at 1500 g for 5 minutes. The ether phase containing chlorophyll was discarded and the procedure was repeated 2 times. The remaining 660 µl sample was acidified with 60 µl HCl (final HCl concentration 1 M) and further extracted with chloroform / methanol as described earlier. The lipid-containing chloroform phase was obtained after centrifugation (10 min, 1500 g) and evaporated under nitrogen. […] The data was processed and analyzed using Shimadzu software. […] The cytotoxicity of these fractions was determined as described above, after resolubilising the samples in 50 mM NaOH and adjusting to neutral pH and 300 mOsm/L with 3-[N-morpholino]-propanesulfonic acid (MOPS).
A general note: Size exclusion chromatography separates by hydrodynamic size, large species first.

Protocol for colonic epithelial cells: About eight-week-old, outbred male Wistar rats (Harlan Horst/WU, SPF) were housed individually in metabolic cages in a room with controlled temperature (± 20°C), relative humidity (50-60%) and a light/dark cycle (6 AM to 6 PM). Animals were acclimatized to housing conditions for 5 days before start of the experiment.
In the first study we tested whether spinach prevents the effect of dietary heme. […] During two weeks, four groups of eight rats were fed purified diets. The control group consumed a diet which contained per kg, 200 g casein, 532 g dextrose, 200 g fat (160 g palm fat and 40 g corn oil), 20 g cellulose and 20 mmol calcium phosphate (CaPO4·2H2O, Fluka Chemie Buchs, Switzerland). […]
After the experimental feeding period of 14 days, we quantified the colon epithelial cell proliferation as DNA-replication, using [methyl-^3H]thymidine incorporation into DNA. […] These homogenates were analyzed for ^3H-thymidine incorporation and for total DNA content. […] A sample (0.5 ml) of the hydrolysate was dissolved in 15 ml Aqua Luma (Lumac-LSC BV., Groningen, The Netherlands) and counted with corrections for quenching on a Beckman LS-7500 liquid scintillation counter. DNA content was determined using the diphenylamine reaction with calf thymus DNA as standard (Sigma) [24].

As to chlorophyll, the “prevention of heme-induced epithelial hyperproliferation” value with colonic epithelial cells (chlorophyll study, added to heme diet, 1,2 mmol chlorophyll / kg diet, 14 days (Figure 3)) is “completely prevented”. Moreover, in data set [1] (chlorophyll study, supplemented to the heme diet, fecal water of rats (Figure 5)), the “inhibition of heme-induced increase of cytotoxicity of the fecal water” value is recorded as “completely”. For the same substance, the “effect on heme-induced reduction of host DNA in the feces” value in the data set with colonocytes (chlorophyll study, supplemented to the heme diet (Figure 4)) is “totally abolished”.

As for hemin [heme], in the data set on colonic epithelial cells (spinach study, 0.5 mmol heme / kg diet, 14 days), the “increase in rate of DNA-replication compared with the control group” value was determined as 50%. Besides, in the data set with colon mucosa (0.5 mmol heme / kg diet), the “decrease of DNA content of the mucosa compared with the other groups” value was 20%. Also, in the data set with colon mucosa (mean ± SEM, n=8 per group), the “DNA content of the mucosa” value is recorded as 4207 µg DNA / g scraping. Further, the “cytotoxicity of the fecal water compared with the control diet” value in data set [1] (chlorophyll study, 0.5 mmol heme / kg diet, fecal water of rats (Figure 5)) was “increase”. Moreover, the “increase of cytotoxicity of fecal water compared with the control group” value in data set [1] (spinach study, fecal water of rats, 0.5 mmol heme / kg diet) is reported as 7 fold. Also, the “host DNA detected in the feces compared to the control diet” value with colonocytes (chlorophyll study, 0.5 mmol heme / kg diet, feces of days 11-14 (Figure 4)) is “strong reduction”. Also, in the data set with colonocytes (summary of examples 1 and 2, dietary heme), the “exfoliation of colonocytes (rat DNA quantification from faeces)” value is recorded as “inhibited this exfoliation of colonocytes almost completely”. The “cytotoxicity of collected size exclusion chromatography fractions” value in data set [2] is “very high”.

These data come from patent EP1522308A1, “Use of chlorophyll or analogues for the prevention of cytotoxic effects of dietary heme on the intestinal mucosa” (Stichting Top-Instituut Voedselwetenschappen, priority 2003, dated 2005).
